In patent US11840686B2, “Modulation of prekallikrein (PKK) expression” (Ionis Pharmaceuticals, Inc., priority 2013, dated 2023):
Strand notation (5' to 3'): a small letter for the sugar, then the base; units joined by * are phosphorothioate-linked, units joined directly phosphodiester-linked; [ ] holds rarer units or linkages, { } end groups; capitals alone tell only the bases. e = 2'-O-(2-methoxyethyl) (MOE); [5mC] = 5-methylcytosine; d = 2'-deoxy (DNA)

Columns and labels:
[1] = test system: human PKK mRNA; test: Dose-dependent antisense inhibition of human PKK in HepaRG cells, 0.12-10.00 uM (Example 4); type: cell-based; conditions: electroporation, ~16 h; for percent inhibition of PKK at 0.12 μM: Table 32, 0.12 μM; for percent inhibition of PKK at 0.37 μM: Table 32, 0.37 μM; for percent inhibition of PKK at 1.11 μM: Table 32, 1.11 μM; for percent inhibition of PKK at 3.33 μM: Table 32, 3.33 μM; for percent inhibition of PKK at 10.00 μM: Table 32, 10.00 μM; for IC50: Table 32, PKK mRNA
Procedure: Cells were plated at a density of 20,000 cells per well and transfected using electroporation with 0.12 μM, 0.37 μM, 1.11 μM, 3.33 μM, and 10.00 μM concentrations of antisense oligonucleotide. After a treatment period of approximately 16 hours, RNA was isolated from the cells and PKK mRNA levels were measured by quantitative real-time PCR. Human PKK primer probe set RTS3454 was used to measure mRNA levels. PKK mRNA levels were adjusted according to total RNA content, as measured by RIBOGREEN®. The antisense oligonucleotides were tested in a series of experiments that had similar culture conditions. Results are presented as percent inhibition of PKK, relative to untreated control cells.
The half maximal inhibitory concentration (IC50) of each oligonucleotide is also presented.

[2] = test system: human PKK mRNA; test: Antisense inhibition of human PKK mRNA in HepaRG cells, 3,000 nM (Example 1); type: cell-based; conditions: relative to untreated control cells
Summary of the method: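 HepaRG cells, 20,000 per well, were electroporated with 3,000 nM 5-10-5 MOE gapmer (phosphorothioate, 5-methylcytosine). After about 24 h, PKK mRNA was measured by qRT-PCR with primer probe set RTS3454 and normalised to RIBOGREEN total RNA. Values are percent inhibition versus untreated cells.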

[3] = Table 1, PKK mRNA, HepaRG cells, 3,000 nM, electroporation, ~24 h
[4] = Table 4, HepaRG cells, electroporation with 3,000 nM antisense oligonucleotide, approx. 24 hours, PKK mRNA by RT-PCR (RTS3454)

486847 (antisense eA*eG*eG*e[5mC]*eA*dT*dA*dT*dT*dG*dG*dT*dT*dT*dT*eT*eG*eG*eA*eA) [compound 486847]
percent inhibition of PKK at 0.12 μM [1]: 0%
percent inhibition of PKK at 0.37 μM [1]: 34%
percent inhibition of PKK at 1.11 μM [1]: 48%
percent inhibition of PKK at 3.33 μM [1]: 71%
percent inhibition of PKK at 10.00 μM [1]: 87%
IC50 [1]: 1100 nM
% inhibition ([2]; Table 2, PKK mRNA, HepaRG cells, 3,000 nM, electroporation, ~24 h): 78%

530933 (antisense eT*eG*eG*eA*eG*dG*dT*dG*dA*dG*dT*d[5mC]*dT*d[5mC]*dT*eT*eG*eT*e[5mC]*eA) [compound 530933]
percent inhibition of PKK at 0.12 μM [1]: 15%
percent inhibition of PKK at 0.37 μM [1]: 13%
percent inhibition of PKK at 1.11 μM [1]: 42%
percent inhibition of PKK at 3.33 μM [1]: 67%
percent inhibition of PKK at 10.00 μM [1]: 66%
IC50 [1]: 1700 nM
% inhibition [2, 3]: 76%

530959 (antisense eT*e[5mC]*eA*eA*e[5mC]*dA*d[5mC]*dT*dG*d[5mC]*dT*dA*dA*d[5mC]*d[5mC]*eT*eT*eA*eG*eA) [compound 530959]
percent inhibition of PKK at 0.12 μM [1]: 12%
percent inhibition of PKK at 0.37 μM [1]: 27%
percent inhibition of PKK at 1.11 μM [1]: 53%
percent inhibition of PKK at 3.33 μM [1]: 80%
percent inhibition of PKK at 10.00 μM [1]: 94%
IC50 [1]: 900 nM
% inhibition [2, 3]: 60%

530965 (antisense eG*eG*e[5mC]*eA*e[5mC]*dA*dG*dG*dG*d[5mC]*dT*dT*d[5mC]*dA*dG*eT*eG*eA*eG*eA) [compound 530965]
percent inhibition of PKK at 0.12 μM [1]: 8%
percent inhibition of PKK at 0.37 μM [1]: 5%
percent inhibition of PKK at 1.11 μM [1]: 63%
percent inhibition of PKK at 3.33 μM [1]: 83%
percent inhibition of PKK at 10.00 μM [1]: 91%
IC50 [1]: 800 nM
% inhibition [2, 3]: 73%

530967 (antisense e[5mC]*eA*eA*e[5mC]*e[5mC]*dA*dA*dT*dT*dT*d[5mC]*dT*dG*dA*dA*eA*eG*eG*eG*e[5mC]) [compound 530967]
percent inhibition of PKK at 0.12 μM [1]: 30%
percent inhibition of PKK at 0.37 μM [1]: 36%
percent inhibition of PKK at 1.11 μM [1]: 48%
percent inhibition of PKK at 3.33 μM [1]: 82%
percent inhibition of PKK at 10.00 μM [1]: 91%
IC50 [1]: 700 nM
% inhibition [2, 3]: 69%

530970 (antisense eT*eT*eG*eG*eT*dG*dT*dG*d[5mC]*d[5mC]*dA*d[5mC]*dT*dT*dT*e[5mC]*eA*eG*eA*eT) [compound 530970]
percent inhibition of PKK at 0.12 μM [1]: 1%
percent inhibition of PKK at 0.37 μM [1]: 0%
percent inhibition of PKK at 1.11 μM [1]: 66%
percent inhibition of PKK at 3.33 μM [1]: 76%
percent inhibition of PKK at 10.00 μM [1]: 84%
IC50 [1]: 1000 nM
% inhibition [2, 3]: 74%

531209 (eT*eG*eG*eA*eT*dT*d[5mC]*dA*dT*dT*dT*dT*d[5mC]*dT*dG*e[5mC]*eA*eA*eA*eT; antisense) [compound 531209]
% inhibition [2, 4]: 81%

531210 (eA*eG*eA*e[5mC]*eA*dT*dT*dG*dT*d[5mC]*dA*dA*dA*dT*dG*eT*e[5mC]*e[5mC]*e[5mC]*e[5mC]; antisense) [compound 531210]
% inhibition [2, 4]: 60%

531211 (eT*eT*eG*eA*eT*dG*dT*d[5mC]*dA*dG*d[5mC]*dA*d[5mC]*dT*dG*eT*eT*eG*eA*e[5mC]; antisense) [compound 531211]
% inhibition [2, 4]: 77%

531212 (eA*e[5mC]*eA*eT*e[5mC]*dA*dG*dT*dA*dG*d[5mC]*dT*dT*d[5mC]*dA*eG*eA*eT*eG*eT; antisense) [compound 531212]
% inhibition [2, 4]: 56%

531213 (e[5mC]*eA*eA*eA*eA*dT*dT*dA*dA*dT*dT*dG*dT*dG*d[5mC]*eA*eT*eA*eA*eT; antisense) [compound 531213]
% inhibition [2, 4]: 13%

531214 (eT*eT*eT*eT*eT*d[5mC]*dT*dT*dT*dA*dA*dA*dT*dT*dT*eT*eG*e[5mC]*eT*eA; antisense) [compound 531214]
% inhibition [2, 4]: 37%

531215 (eT*eA*eG*eA*eG*dA*dT*dT*dT*dT*dA*dT*dG*dT*dA*e[5mC]*eT*eT*eG*eG; antisense) [compound 531215]
% inhibition [2, 4]: 63%

531216 (eA*eA*eA*e[5mC]*eA*d[5mC]*dA*dG*dG*dA*dA*dT*dT*dT*dG*e[5mC]*eA*eG*eA*e[5mC]; antisense) [compound 531216]
% inhibition [2, 4]: 33%

531217 (eG*eT*eG*eG*eA*dA*dT*dA*dA*dA*d[5mC]*d[5mC]*dA*dT*dA*eA*eT*e[5mC]*eT*eA; antisense) [compound 531217]
% inhibition [2, 4]: 47%

531218 (eG*eA*eT*eA*eA*dT*dT*d[5mC]*dT*dT*dT*dT*d[5mC]*dA*d[5mC]*eA*eG*eA*e[5mC]*eA; antisense) [compound 531218]
% inhibition [2, 4]: 72%

531219 (e[5mC]*eT*eT*e[5mC]*eT*d[5mC]*dT*dA*dT*d[5mC]*dT*d[5mC]*d[5mC]*d[5mC]*dA*eG*eT*eG*eT*eT; antisense) [compound 531219]
% inhibition [2, 4]: 61%

531220 (e[5mC]*eA*eA*eT*eA*d[5mC]*dA*dG*dG*dT*dA*dA*dA*dT*dT*eT*e[5mC]*eA*e[5mC]*eG; antisense) [compound 531220]
% inhibition [2, 4]: 56%

531221 (eA*eA*eG*eG*eG*dA*dT*dT*dT*dA*dA*dA*dA*dT*dT*eT*eT*eT*eA*eT; antisense) [compound 531221]
% inhibition [2, 4]: 0%

531222 (eG*eG*e[5mC]*eA*eA*dG*d[5mC]*dT*dG*dT*dA*d[5mC]*dA*dA*dG*eA*eA*eA*eA*eA; antisense) [compound 531222]
% inhibition [2, 4]: 19%

531223 (eT*eG*eT*eA*e[5mC]*dT*d[5mC]*dA*d[5mC]*d[5mC]*dG*dG*dT*dA*d[5mC]*eT*e[5mC]*eT*eG*e[5mC]; antisense) [compound 531223]
% inhibition [2, 4]: 58%

531224 (eA*eA*eG*eA*eG*dA*dA*dT*dG*d[5mC]*dT*d[5mC]*dA*dG*dA*eA*eA*eT*eG*eG; antisense) [compound 531224]
% inhibition [2, 4]: 25%

531225 (eA*e[5mC]*eA*e[5mC]*eT*dT*dG*dT*dA*d[5mC]*d[5mC]*d[5mC]*d[5mC]*dA*dT*eA*e[5mC]*eA*eT*e[5mC]; antisense) [compound 531225]
% inhibition [2, 4]: 45%

531226 (eG*eA*e[5mC]*eA*eG*dT*dA*dG*dA*dG*dA*d[5mC]*dT*dG*dG*eG*eA*eA*eG*eG; antisense) [compound 531226]
% inhibition [2, 4]: 12%

531227 (eT*eA*e[5mC]*e[5mC]*eA*dA*dT*dT*dT*d[5mC]*dT*dG*dA*dA*dA*eG*eG*eG*e[5mC]*eA; antisense) [compound 531227]
% inhibition [2, 4]: 72%

531228 (e[5mC]*eA*eG*eA*eG*dT*dA*dA*dA*d[5mC]*dT*d[5mC]*d[5mC]*d[5mC]*d[5mC]*eA*eT*e[5mC]*eT*e[5mC]; antisense) [compound 531228]
% inhibition [2, 4]: 33%

531229 (e[5mC]*eT*eT*e[5mC]*eA*dA*dA*dG*d[5mC]*d[5mC]*dA*dG*d[5mC]*dA*dG*eT*eG*eT*eA*eA; antisense) [compound 531229]
% inhibition [2, 4]: 69%

531230 (e[5mC]*eT*eT*eA*e[5mC]*dT*dG*dG*dG*d[5mC]*dT*dA*dA*dA*dA*eT*e[5mC]*eA*eA*eG; antisense) [compound 531230]
% inhibition [2, 4]: 46%

531237 (eG*eT*eG*eG*eA*dA*dT*dG*dT*d[5mC]*dA*dT*dG*dG*d[5mC]*eA*eA*eT*eT*eT; antisense) [compound 531237]
% inhibition [2, 4]: 56%
